# From US9884825B2, “Curcumin analogs and methods of making and using thereof” (Georgia State University Research Foundation, Inc., priority 2012, dated 2018)
row,Structure (SMILES),melting point [°C]
1,"CCc1ccc(/C=C2\CN(S(=O)(=O)c3ccc(C)cc3)C/C(=C\c3ccc(CC)cc3)C2=O)cc1 [3b, 3,5-Bis(4-etbylbenzylidene)-1-tosylpiperidin-4-one]",165
2,"CCCc1ccc(/C=C2\CN(S(=O)(=O)c3ccc(C)cc3)C/C(=C\c3ccc(CCC)cc3)C2=O)cc1 [3c, 3,5-Bis(4-propylbenzylidene)-1-tosylpiperidin-4-one]",157
3,"Cc1ccc(/C=C2\CN(S(=O)(=O)c3ccc(C)cc3)C/C(=C\c3ccc(C)cc3)C2=O)cc1 [3d, 3,5-Bis(4-methylbenzylidene)-1-tosylpiperidin-4-one]",187
4,"Cc1ccc(S(=O)(=O)N2C/C(=C\c3ccc(Cl)cc3)C(=O)/C(=C/c3ccc(Cl)cc3)C2)cc1 [3e, 3,5-Bis(4-chlorobenzylidene)-1-tosylpiperidin-4-one]",209
5,"COc1ccc(/C=C2\CN(S(=O)(=O)c3ccc(C)cc3)C/C(=C\c3ccc(OC)cc3)C2=O)cc1 [3f, 3,5-Bis(4-methoxybenzylidene)-1-tosylpiperidin-4-one]",183
6,"Cc1ccc(S(=O)(=O)N2C/C(=C\c3ccc(C(C)(C)C)cc3)C(=O)/C(=C/c3ccc(C(C)(C)C)cc3)C2)cc1 [3g, 3,5-Bis(4-tert-butylbenzylidene)-1-tosylpiperidin-4-one]",220
7,"CCCCc1ccc(/C=C2\CN(S(=O)(=O)c3ccc(C)cc3)C/C(=C\c3ccc(CCCC)cc3)C2=O)cc1 [3h, 3,5-Bis(4-butylbenzylidene)-1-tosylpiperidin-4-one]",148
8,"Cc1ccc(S(=O)(=O)N2C/C(=C\c3ccc(C(C)C)cc3)C(=O)/C(=C/c3ccc(C(C)C)cc3)C2)cc1 [3i, 3,5-Bis(4-isopropylbenzylidene)-1-tosylpiperidin-4-one]",177
9,"Cc1ccc(/C=C2\CN(S(=O)(=O)c3ccccc3)C/C(=C\c3ccc(C)cc3)C2=O)cc1 [4a, 3,5-Bis(4-methylbenzylidene)-1-(phenylsulfonyl)piperidin-4-one]",211
10,"CCc1ccc(/C=C2\CN(S(=O)(=O)c3ccccc3)C/C(=C\c3ccc(CC)cc3)C2=O)cc1 [4b, 3,5-Bis(4-ethylbenzylidene)-1-(phenylsulfonyl)piperidin-4-one]",165
11,"CC(C)c1ccc(/C=C2\CN(S(=O)(=O)c3ccccc3)C/C(=C\c3ccc(C(C)C)cc3)C2=O)cc1 [4c, 3,5-Bis(4-isopropylbenzylidene)-1-(phenylsulfonyl)piperidin-4-one]",170
12,"CCCc1ccc(/C=C2\CN(S(=O)(=O)c3ccccc3)C/C(=C\c3ccc(CCC)cc3)C2=O)cc1 [4d, 1-(Phenylsulfonyl)-3,5-bis(4-propylbenzylidene)piperidin-4-one]",153
13,"CC(C)(C)c1ccc(/C=C2\CN(S(=O)(=O)c3ccccc3)C/C(=C\c3ccc(C(C)(C)C)cc3)C2=O)cc1 [4f, 3,5-Bis(4-tert-butylbenzylidene)-1-(phenylsulfonyl)piperidin-4-one]",194
14,"CCCCc1ccc(/C=C2\CN(S(=O)(=O)c3ccccc3)C/C(=C\c3ccc(CCCC)cc3)C2=O)cc1 [4g, 3,5-Bis(4-butylbenzylidene)-1-(phenylsulfonyl)piperidin-4-one]",134
15,"COc1ccc(/C=C2\CN(S(=O)(=O)c3ccccc3)C/C(=C\c3ccc(OC)cc3)C2=O)cc1 [4h, 3,5-Bis(4-methoxybenzylidene)-1-(phenylsulfonyl)piperidin-4-one]",217
16,"O=C1/C(=C/c2ccc(F)cc2)CN(S(=O)(=O)c2ccccc2)C/C1=C\c1ccc(F)cc1 [4j, 3,5-Bis(4-fluorobenzylidene)-1-(phenylsulfonyl)piperidin-4-one]",181

# Second part, the compound after the results:
row,melting point [°C],Structure (SMILES)
1,170,"Cc1ccc(/C=C2\CN(Cc3ccccc3)C/C(=C\c3ccc(C)cc3)C2=O)cc1 [5a, 1-Benzyl-3,5-bis(4-methylbenzylidene)piperidin-4-one]"
2,119,"CCc1ccc(/C=C2\CN(Cc3ccccc3)C/C(=C\c3ccc(CC)cc3)C2=O)cc1 [5c, 1-Benzyl-3,5-bis-(4-ethyl-benzylidene)-piperidin-4-one]"
3,157,"CC(C)c1ccc(/C=C2\CN(Cc3ccccc3)C/C(=C\c3ccc(C(C)C)cc3)C2=O)cc1 [5e, 1-Benzyl-3,5-bis(4-isopropylbenzylidene)piperidin-4-one]"
4,104,"CCCCc1ccc(/C=C2\CN(Cc3ccccc3)C/C(=C\c3ccc(CCCC)cc3)C2=O)cc1 [5f, 1-Benzyl-3,5-bis(4-butylbenzylidene)piperidin-4-one]"
5,167,"CC(C)(C)c1ccc(/C=C2\CN(Cc3ccccc3)C/C(=C\c3ccc(C(C)(C)C)cc3)C2=O)cc1 [5g, 1-Benzyl-3,5-bis(4-tert-butylbenzylidene)piperidin-4-one]"
6,159,"O=C1/C(=C/c2ccc(F)cc2)CN(Cc2ccccc2)C/C1=C\c1ccc(F)cc1 [5j, 1-Benzyl-3,5-bis(4-fluorobenzylidene)piperidin-4-one]"
7,178,"CCN1C/C(=C\c2ccc(Br)cc2)C(=O)/C(=C/c2ccc(Br)cc2)C1 [6a, 3,5-Bis-(4-bromo-benzylidene)-1-ethyl-piperidin-4-one]"
8,114,"CCN1C/C(=C\c2ccc(F)cc2)C(=O)/C(=C/c2ccc(F)cc2)C1 [6c, 1-Ethyl-3,5-bis(4-fluorobenzylidene)piperidin-4-one]"
9,178,"CCc1ccc(/C=C2\CN(CC)C/C(=C\c3ccc(CC)cc3)C2=O)cc1 [6e, 1-Ethyl-3,5-bis(4-ethylbenzylidene)piperidin-4-one]"
10,111,"CCN1C/C(=C\c2ccc(C(C)(C)C)cc2)C(=O)/C(=C/c2ccc(C(C)(C)C)cc2)C1 [6i, 3,5-Bis(4-tert-butylbenzylidene)-1-ethylpiperidin-4-one]"
11,106,"C#CCN1CC(=Cc2ccc(C(C)C)cc2)C(=O)C(=Cc2ccc(C(C)C)cc2)C1 [10c, 3,5-Bis(4-isopropylbenzylidene)-1-(prop-2-ynyl)piperidin-4-one]"
12,182,"C#CCN1CC(=Cc2ccc(C(C)(C)C)cc2)C(=O)C(=Cc2ccc(C(C)(C)C)cc2)C1 [10d, 3,5-Bis(4-tert-butylbenzylidene)-1-(prop-2-ynyl)piperidin-4-one]"
13,96,"C#CCN1CC(=Cc2ccc(CCC)cc2)C(=O)C(=Cc2ccc(CCC)cc2)C1 [10e, 1-(Prop-2-ynyl)-3,5-bis(4-propylbenzylidene)piperidin-4-one]"
14,165,"CCCn1cc(CN2CC(=Cc3ccc(C)cc3)C(=O)C(=Cc3ccc(C)cc3)C2)nn1 [11a, 3,5-Bis(4-methylbenzylidene)-1-((1-propyl-1H-1,2,3-triazol-4-yl)methyl)piperidin-4-one]"
15,169,"CCCCCn1cc(CN2CC(=Cc3ccc(C)cc3)C(=O)C(=Cc3ccc(C)cc3)C2)nn1 [11c, 3,5-Bis(4-methylbenzylidene)-1-((1-pentyl-1H-1,2,3-triazol-4-yl)methyl)piperidin-4-one]"
16,149,"CCCn1cc(CN2CC(=Cc3ccc(CC)cc3)C(=O)C(=Cc3ccc(CC)cc3)C2)nn1 [12a, 3,5-Bis(4-ethylbenzylidene)-1-((1-propyl-1H-1,2,3-triazol-4-yl)methyl)piperidin-4-one]"
